Laboratory results: ChEMBL document CHEMBL2331477, “Effect of helical conformation and side chain structure on γ-secretase inhibition by β-peptide foldamers: insight into substrate recognition” (J Med Chem, 2013)
The source made the active and inactive calls. No cut-off for these calls is given here.

Tests used:
[1] = target: T1, Gamma-secretase (Homo sapiens) (UniProt Q96BI3+Q9NZ42+Q8WW43+P49768+Q92542+P49810); assay: Inhibition of gamma-secretase (unknown origin) expressed in N2a NL/N cells coexpressing betaAPPNL and NotchdeltaE assessed as Abeta40 secretion at 100 nM by ELISA; format: cell-based
[2] = target: T1, Gamma-secretase (Homo sapiens); assay: Inhibition of gamma-secretase (unknown origin) expressed in N2a NL/N cells coexpressing betaAPPNL and NotchdeltaE assessed as Abeta42 secretion at 100 nM by ELISA; format: cell-based

Compound | inhibition [1] | inhibition [2]
CC(=O)N[C@H]1CCC[C@@H]1C(=O)N[C@H]1CCC[C@@H]1C(=O)N[C@H]1CCC[C@@H]1C(=O)N[C@H]1CCC[C@@H]1C(=O)N[C@H]1CCC[C@@H]1C(=O)N[C@H]1CCC[C@@H]1C(=O)N[C@H]1CCC[C@@H]1C(=O)N[C@H]1CCC[C@@H]1C(=O)N[C@@H](CC(N)=O)CC(=O)N[C@H]1CCC[C@@H]1C(=O)N[C@H]1CCC[C@@H]1C(=O)N[C@H]1CCC[C@@H]1C(N)=O | inactive | inactive
CC(=O)N[C@H]1CCC[C@@H]1C(=O)N[C@H]1CCC[C@@H]1C(=O)N[C@H]1CCC[C@@H]1C(=O)N[C@H]1CCC[C@@H]1C(=O)N[C@H]1CCC[C@@H]1C(=O)N[C@@H](CC(N)=O)CC(=O)N[C@H]1CCC[C@@H]1C(=O)N[C@H]1CCC[C@@H]1C(=O)N[C@H]1CCC[C@@H]1C(=O)N[C@H]1CCC[C@@H]1C(=O)N[C@H]1CCC[C@@H]1C(=O)N[C@H]1CCC[C@@H]1C(N)=O | inactive | inactive
CC(=O)N[C@H]1CCC[C@@H]1C(=O)N[C@H]1CCC[C@@H]1C(=O)N[C@H]1CCC[C@@H]1C(=O)N[C@H]1CCC[C@@H]1C(=O)N[C@H]1CCC[C@@H]1C(=O)N[C@H]1CCC[C@@H]1C(=O)N[C@H]1CCC[C@@H]1C(=O)N[C@H]1CCC[C@@H]1C(=O)NC(CO)CC(=O)N[C@H]1CCC[C@@H]1C(=O)N[C@H]1CCC[C@@H]1C(=O)N[C@H]1CCC[C@@H]1C(N)=O (single isomer, unassigned) | inactive | inactive
CC(=O)N[C@H]1CCC[C@@H]1C(=O)N[C@H]1CCC[C@@H]1C(=O)N[C@H]1CCC[C@@H]1C(=O)N[C@H]1CCC[C@@H]1C(=O)N[C@H]1CCC[C@@H]1C(=O)N[C@@H](CCC(N)=O)CC(=O)N[C@H]1CCC[C@@H]1C(=O)N[C@H]1CCC[C@@H]1C(=O)N[C@H]1CCC[C@@H]1C(=O)N[C@H]1CCC[C@@H]1C(=O)N[C@H]1CCC[C@@H]1C(=O)N[C@H]1CCC[C@@H]1C(N)=O | inactive | inactive
CC(=O)N[C@H]1CCC[C@@H]1C(=O)N[C@H]1CCC[C@@H]1C(=O)N[C@H]1CCC[C@@H]1C(=O)N[C@H]1CCC[C@@H]1C(=O)N[C@H]1CCC[C@@H]1C(=O)N[C@@H](CCC(=O)O)CC(=O)N[C@H]1CCC[C@@H]1C(=O)N[C@H]1CCC[C@@H]1C(=O)N[C@H]1CCC[C@@H]1C(=O)N[C@H]1CCC[C@@H]1C(=O)N[C@H]1CCC[C@@H]1C(=O)N[C@H]1CCC[C@@H]1C(N)=O | inactive | inactive
CC(=O)N[C@H]1CCC[C@@H]1C(=O)N[C@H]1CCC[C@@H]1C(=O)N[C@H]1CCC[C@@H]1C(=O)N[C@H]1CCC[C@@H]1C(=O)N[C@H]1CCC[C@@H]1C(=O)N[C@H]1CCC[C@@H]1C(=O)N[C@H]1CCC[C@@H]1C(=O)N[C@H]1CCC[C@@H]1C(=O)N[C@@H](CC(=O)N[C@H]1CCC[C@@H]1C(=O)N[C@H]1CCC[C@@H]1C(=O)N[C@H]1CCC[C@@H]1C(N)=O)[C@@H](C)O | inactive | inactive
CC(=O)N[C@H]1CCC[C@@H]1C(=O)N[C@H]1CCC[C@@H]1C(=O)N[C@@H](C)CC(=O)N[C@H]1CCC[C@@H]1C(=O)N[C@H]1CCC[C@@H]1C(=O)N[C@H]1CCC[C@@H]1C(=O)N[C@H]1CCC[C@@H]1C(=O)N[C@H]1CCC[C@@H]1C(=O)N[C@H]1CCC[C@@H]1C(=O)N[C@H]1CCC[C@@H]1C(=O)N[C@H]1CCC[C@@H]1C(=O)N[C@H]1CCC[C@@H]1C(N)=O | Active | Active
CC(=O)N[C@H]1CCC[C@@H]1C(=O)N[C@H]1CCC[C@@H]1C(=O)N[C@H]1CCC[C@@H]1C(=O)N[C@H]1CCC[C@@H]1C(=O)N[C@H]1CCC[C@@H]1C(=O)N[C@H]1CCC[C@@H]1C(=O)N[C@H]1CCC[C@@H]1C(=O)N[C@H]1CCC[C@@H]1C(=O)N[C@@H](CCCCN)CC(=O)N[C@H]1CCC[C@@H]1C(=O)N[C@H]1CCC[C@@H]1C(=O)N[C@H]1CCC[C@@H]1C(N)=O | inactive | inactive
